# Experimental data reported in ChEMBL document CHEMBL1201862, “PubChem BioAssay data set” (2004).
# Where a name gives a salt, the structure may show the parent alone. Calls of active or inactive are those of the source.
# Assays:
# [1] = off-target signal loss in HeLa-CEM21 co-culture – HeLa F-luc CTL cells, cherry-picked, counter-screen for HIV-1 Env fusion inhibitor project, dose response (AID 652040); assay type: functional, cell-based;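 note: potency for signal decrease marking cytotoxic or nonspecific inhibition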
# [2] = ZM109 Env clade C HIV-1 fusion inhibitors, dose response, HeLa effector, CEM target cells, luciferase, cherry-pick (AID 652058); assay type: functional, cell-based
# [3] = inhibitors of clade B AD8 Env fusion, dose response, cell-based, cherry-pick (AID 652062); assay type: functional;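 note: luciferase signal from cell-cell fusion driven by HIV-1 clade B AD8 Env; potency is for inhibitors of fusion seen as a drop in luminescence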
# [4] = inhibitors of HIV Env-driven cell fusion, dose response, cherry-pick (AID 652057); assay type: functional, cell-based
# [5] = target: T1, High affinity choline transporter 1 (Homo sapiens, UniProt Q9GZV3); experiment: CHT inhibitors, dose response, cell-based, 5-point CRC, membrane potential dye (AID 504840); assay type: functional
# T1 sequence (Q9GZV3 whole entry): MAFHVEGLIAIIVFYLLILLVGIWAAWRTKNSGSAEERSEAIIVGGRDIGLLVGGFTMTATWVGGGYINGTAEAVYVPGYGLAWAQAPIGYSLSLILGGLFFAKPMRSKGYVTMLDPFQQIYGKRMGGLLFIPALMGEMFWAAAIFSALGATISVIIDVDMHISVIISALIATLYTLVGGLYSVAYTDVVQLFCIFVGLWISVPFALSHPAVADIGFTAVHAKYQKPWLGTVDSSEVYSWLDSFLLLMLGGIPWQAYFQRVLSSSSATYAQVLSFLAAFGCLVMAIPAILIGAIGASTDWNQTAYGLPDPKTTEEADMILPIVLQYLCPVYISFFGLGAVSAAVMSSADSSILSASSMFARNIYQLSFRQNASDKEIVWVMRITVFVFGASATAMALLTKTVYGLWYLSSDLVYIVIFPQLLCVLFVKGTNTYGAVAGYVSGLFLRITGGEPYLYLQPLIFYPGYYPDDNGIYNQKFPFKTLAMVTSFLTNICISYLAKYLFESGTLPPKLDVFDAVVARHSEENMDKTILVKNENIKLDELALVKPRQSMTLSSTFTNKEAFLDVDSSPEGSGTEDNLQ
# Streptokinase A = target: T2, Streptokinase A (Streptococcus pyogenes serotype M1, UniProt P10520); experiment: S. pyogenes streptokinase expression inhibitors, potency, dose response, plasminogen activation absorbance, OD405 (AID 1914); assay type: functional, Streptococcus pyogenes M1 GAS;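 note: secreted streptokinase activity via plasminogen activation per viability signal from cell pellet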
# T2 sequence (P10520 whole entry): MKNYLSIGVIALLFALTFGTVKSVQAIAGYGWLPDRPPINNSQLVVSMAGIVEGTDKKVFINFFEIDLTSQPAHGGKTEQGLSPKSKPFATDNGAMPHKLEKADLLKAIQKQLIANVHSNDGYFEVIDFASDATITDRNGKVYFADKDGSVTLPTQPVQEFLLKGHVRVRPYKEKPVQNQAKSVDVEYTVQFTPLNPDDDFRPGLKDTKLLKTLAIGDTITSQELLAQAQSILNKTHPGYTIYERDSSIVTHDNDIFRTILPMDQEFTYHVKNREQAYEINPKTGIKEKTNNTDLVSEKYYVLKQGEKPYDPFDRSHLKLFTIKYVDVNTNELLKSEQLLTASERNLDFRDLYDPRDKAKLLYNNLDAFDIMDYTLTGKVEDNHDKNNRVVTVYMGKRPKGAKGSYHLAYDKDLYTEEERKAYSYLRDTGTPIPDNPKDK
# Prothrombin = Prothrombin (Homo sapiens, UniProt P00734); experiment: Thrombin 1536 HTS Dose Response Confirmation. [Related pubchem assays: 1046 (Thrombin 1536 HTS; hits were confirmed in this assay)]; assay type: functional
# Streptococcus = experiment: Group A Streptococcus viability loss, dose response, counter-screen for streptokinase expression inhibitor project, luminescence, BacTiterGlo (AID 1915); assay type: functional, organism-based;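 note: potency for reduction of bacterial viability or growth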
# [6] = target: Peroxisome proliferator-activated receptor gamma/Nuclear receptor coactivator 1 (Homo sapiens, UniProt P37231); assay type: functional;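 note: agonist potency as compounds enhance coactivator SRC-1 recruitment to PPARgamma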
# [7] = target: Peroxisome proliferator-activated receptor gamma/Nuclear receptor coactivator 3 (Homo sapiens, UniProt P37231); assay type: functional;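 note: agonist potency for raising coactivator recruitment to the receptor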
# [8] = target: Peroxisome proliferator-activated receptor gamma/Nuclear receptor coactivator 2 (Homo sapiens, UniProt P37231); assay type: functional;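 note: agonist potency for raising coactivator recruitment to the receptor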
# Cytochrome P450 3A4 = Cytochrome P450 3A4 (Homo sapiens, UniProt P08684);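 note: CYP3A4 tested as one member of a cytochrome P450 panel screen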
# Cytochrome P450 2C9 = Cytochrome P450 2C9 (Homo sapiens, UniProt P11712)
# [9] = target: T3, Ubiquitin-conjugating enzyme E2 N (Homo sapiens, UniProt P61088); assay type: functional;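 note: Dose-response confirmation in a TR-FRET assay detecting UBC13-driven polyubiquitin chain formation, inhibition measured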
# T3 sequence (P61088 whole entry): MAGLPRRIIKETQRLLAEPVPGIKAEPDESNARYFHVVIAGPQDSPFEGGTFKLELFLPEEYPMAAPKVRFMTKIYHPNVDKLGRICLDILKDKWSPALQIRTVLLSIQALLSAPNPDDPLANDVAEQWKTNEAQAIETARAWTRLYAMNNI
# Nonstructural protein 1 = Nonstructural protein 1 (Influenza A virus, UniProt Q194T2); assay type: functional, Influenza A virus (A/California/07/2009(H1N1))
# Cytochrome P450 2D6 = Cytochrome P450 2D6 (Homo sapiens, UniProt P10635);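 note: CYP2D6 member of a cytochrome P450 panel assay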
# [10] = MC4R antagonists, dose response, counter-screen for LGR2 antagonist project, cell-based, plate reader, cherry pick (AID 743444); assay type: functional;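 note: transfected HEK 293 cells stimulated with alpha-MSH peptide; potency of inhibitors of the alpha-MSH evoked signal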
# [11] = LGR2 antagonists, dose response, cell-based, HEK293, CRE-luciferase reporter, cherry pick, set 2 (AID 743343); assay type: functional;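 note: transfected cells were stimulated with diluted bursicon conditioned medium after compound addition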
# [12] = target: Heat shock protein HSP 90-alpha (Homo sapiens, UniProt P07900); assay type: functional, organism-based
# [13] = microbe, parasite or virus in culture; assay type: functional; conditions: Mycobacterium tuberculosis
# Cytochrome P450 1A2 = target: T4, Cytochrome P450 1A2 (Homo sapiens, UniProt P05177);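 note: PubChem cytochrome P450 panel assay, CYP1A2 panel member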
# T4 sequence (P05177 whole entry): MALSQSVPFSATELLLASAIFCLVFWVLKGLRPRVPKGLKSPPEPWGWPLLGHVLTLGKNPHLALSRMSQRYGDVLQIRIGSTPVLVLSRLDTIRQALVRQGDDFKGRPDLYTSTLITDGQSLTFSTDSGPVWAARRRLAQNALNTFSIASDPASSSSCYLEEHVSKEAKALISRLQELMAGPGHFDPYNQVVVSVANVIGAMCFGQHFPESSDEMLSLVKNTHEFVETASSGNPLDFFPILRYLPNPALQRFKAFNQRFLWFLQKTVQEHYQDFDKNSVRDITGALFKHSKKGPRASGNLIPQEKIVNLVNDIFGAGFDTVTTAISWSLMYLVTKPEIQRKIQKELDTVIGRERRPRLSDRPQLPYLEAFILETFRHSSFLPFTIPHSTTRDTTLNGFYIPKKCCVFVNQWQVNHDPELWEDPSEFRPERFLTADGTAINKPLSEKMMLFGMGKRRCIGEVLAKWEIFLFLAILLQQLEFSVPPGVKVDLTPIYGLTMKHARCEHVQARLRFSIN
# [14] = Luminescence Cell-Based Dose Retest to Confirm Inhibitors of Cancer Stem Cells. [Related pubchem assays (depositor defined):AID2717, AID2721]; assay type: functional; conditions: Homo sapiens
# [15] = target: T5, Corticotropin-releasing factor receptor 2/Corticotropin-releasing factor-binding protein (Homo sapiens, UniProt P24387+Q13324); experiment: activators of CRF receptor 2 with binding protein – uHTS hits, confirmation (AID 602473); assay type: functional; conditions: read-out: EC50_Mean
# T5 sequence (Q13324 whole entry): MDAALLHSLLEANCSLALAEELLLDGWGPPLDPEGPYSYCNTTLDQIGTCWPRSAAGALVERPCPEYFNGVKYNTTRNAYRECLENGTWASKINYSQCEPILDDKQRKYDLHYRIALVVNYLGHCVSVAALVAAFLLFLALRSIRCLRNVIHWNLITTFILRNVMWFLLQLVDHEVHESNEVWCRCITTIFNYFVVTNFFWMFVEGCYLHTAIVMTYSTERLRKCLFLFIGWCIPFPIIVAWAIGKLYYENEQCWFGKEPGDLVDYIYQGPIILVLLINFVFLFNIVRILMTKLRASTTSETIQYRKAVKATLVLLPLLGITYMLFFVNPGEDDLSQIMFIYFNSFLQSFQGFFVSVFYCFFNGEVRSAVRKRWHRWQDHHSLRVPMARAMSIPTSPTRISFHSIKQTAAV
# T5 sequence (P24387 whole entry): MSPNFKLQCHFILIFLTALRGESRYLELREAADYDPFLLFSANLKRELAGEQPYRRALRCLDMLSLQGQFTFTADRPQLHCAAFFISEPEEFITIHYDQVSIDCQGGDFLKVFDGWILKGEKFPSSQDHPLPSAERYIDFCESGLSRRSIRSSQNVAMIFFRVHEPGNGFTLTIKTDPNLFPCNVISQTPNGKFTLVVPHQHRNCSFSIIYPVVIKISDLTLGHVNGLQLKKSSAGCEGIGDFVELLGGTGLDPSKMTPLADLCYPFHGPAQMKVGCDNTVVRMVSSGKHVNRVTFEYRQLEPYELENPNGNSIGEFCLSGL
# [16] = target: T5, Corticotropin-releasing factor receptor 2/Corticotropin-releasing factor-binding protein; experiment: Dose Response confirmation of uHTS hits for small molecule antagonists of the CRF-binding protein and CRF-R2 receptor complex.; assay type: functional; conditions: read-out: IC50_Mean
# Large T antigen = Large T antigen (Simian virus 40, UniProt P03070); assay type: functional, Betapolyomavirus macacae;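 note: Confirmatory-stage PubChem screen for compounds that inhibit SV40 T antigen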
# Sequence of Cytochrome P450 3A4 (P08684 whole entry): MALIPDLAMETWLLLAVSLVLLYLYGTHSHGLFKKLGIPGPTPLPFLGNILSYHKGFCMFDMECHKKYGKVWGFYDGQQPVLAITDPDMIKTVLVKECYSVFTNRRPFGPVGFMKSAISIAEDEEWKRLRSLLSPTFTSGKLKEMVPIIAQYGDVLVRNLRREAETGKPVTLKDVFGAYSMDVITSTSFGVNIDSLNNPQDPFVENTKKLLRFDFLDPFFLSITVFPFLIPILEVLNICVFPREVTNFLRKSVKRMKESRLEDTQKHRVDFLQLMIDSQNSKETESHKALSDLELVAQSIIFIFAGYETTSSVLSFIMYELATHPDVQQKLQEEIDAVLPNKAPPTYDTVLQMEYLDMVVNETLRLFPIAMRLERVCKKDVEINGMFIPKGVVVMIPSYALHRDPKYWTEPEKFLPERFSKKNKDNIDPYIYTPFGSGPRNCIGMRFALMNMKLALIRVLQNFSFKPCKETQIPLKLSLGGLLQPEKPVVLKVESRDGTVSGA
# Sequence of Peroxisome proliferator-activated receptor gamma/Nuclear receptor coactivator 2 (P37231 whole entry): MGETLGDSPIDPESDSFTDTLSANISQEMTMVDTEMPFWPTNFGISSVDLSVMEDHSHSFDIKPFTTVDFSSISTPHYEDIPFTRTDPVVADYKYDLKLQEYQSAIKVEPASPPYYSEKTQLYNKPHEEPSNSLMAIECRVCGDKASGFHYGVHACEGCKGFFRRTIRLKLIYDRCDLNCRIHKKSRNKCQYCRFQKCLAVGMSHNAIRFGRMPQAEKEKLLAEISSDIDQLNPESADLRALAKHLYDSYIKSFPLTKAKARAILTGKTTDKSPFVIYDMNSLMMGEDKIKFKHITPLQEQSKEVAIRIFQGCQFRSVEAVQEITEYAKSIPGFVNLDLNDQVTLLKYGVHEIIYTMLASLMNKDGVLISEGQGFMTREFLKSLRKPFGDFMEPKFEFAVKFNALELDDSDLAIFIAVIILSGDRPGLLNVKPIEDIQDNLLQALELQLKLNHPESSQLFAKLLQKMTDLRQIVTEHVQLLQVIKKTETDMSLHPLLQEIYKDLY
# Sequence of Peroxisome proliferator-activated receptor gamma/Nuclear receptor coactivator 2 (Q15596 whole entry, further chain): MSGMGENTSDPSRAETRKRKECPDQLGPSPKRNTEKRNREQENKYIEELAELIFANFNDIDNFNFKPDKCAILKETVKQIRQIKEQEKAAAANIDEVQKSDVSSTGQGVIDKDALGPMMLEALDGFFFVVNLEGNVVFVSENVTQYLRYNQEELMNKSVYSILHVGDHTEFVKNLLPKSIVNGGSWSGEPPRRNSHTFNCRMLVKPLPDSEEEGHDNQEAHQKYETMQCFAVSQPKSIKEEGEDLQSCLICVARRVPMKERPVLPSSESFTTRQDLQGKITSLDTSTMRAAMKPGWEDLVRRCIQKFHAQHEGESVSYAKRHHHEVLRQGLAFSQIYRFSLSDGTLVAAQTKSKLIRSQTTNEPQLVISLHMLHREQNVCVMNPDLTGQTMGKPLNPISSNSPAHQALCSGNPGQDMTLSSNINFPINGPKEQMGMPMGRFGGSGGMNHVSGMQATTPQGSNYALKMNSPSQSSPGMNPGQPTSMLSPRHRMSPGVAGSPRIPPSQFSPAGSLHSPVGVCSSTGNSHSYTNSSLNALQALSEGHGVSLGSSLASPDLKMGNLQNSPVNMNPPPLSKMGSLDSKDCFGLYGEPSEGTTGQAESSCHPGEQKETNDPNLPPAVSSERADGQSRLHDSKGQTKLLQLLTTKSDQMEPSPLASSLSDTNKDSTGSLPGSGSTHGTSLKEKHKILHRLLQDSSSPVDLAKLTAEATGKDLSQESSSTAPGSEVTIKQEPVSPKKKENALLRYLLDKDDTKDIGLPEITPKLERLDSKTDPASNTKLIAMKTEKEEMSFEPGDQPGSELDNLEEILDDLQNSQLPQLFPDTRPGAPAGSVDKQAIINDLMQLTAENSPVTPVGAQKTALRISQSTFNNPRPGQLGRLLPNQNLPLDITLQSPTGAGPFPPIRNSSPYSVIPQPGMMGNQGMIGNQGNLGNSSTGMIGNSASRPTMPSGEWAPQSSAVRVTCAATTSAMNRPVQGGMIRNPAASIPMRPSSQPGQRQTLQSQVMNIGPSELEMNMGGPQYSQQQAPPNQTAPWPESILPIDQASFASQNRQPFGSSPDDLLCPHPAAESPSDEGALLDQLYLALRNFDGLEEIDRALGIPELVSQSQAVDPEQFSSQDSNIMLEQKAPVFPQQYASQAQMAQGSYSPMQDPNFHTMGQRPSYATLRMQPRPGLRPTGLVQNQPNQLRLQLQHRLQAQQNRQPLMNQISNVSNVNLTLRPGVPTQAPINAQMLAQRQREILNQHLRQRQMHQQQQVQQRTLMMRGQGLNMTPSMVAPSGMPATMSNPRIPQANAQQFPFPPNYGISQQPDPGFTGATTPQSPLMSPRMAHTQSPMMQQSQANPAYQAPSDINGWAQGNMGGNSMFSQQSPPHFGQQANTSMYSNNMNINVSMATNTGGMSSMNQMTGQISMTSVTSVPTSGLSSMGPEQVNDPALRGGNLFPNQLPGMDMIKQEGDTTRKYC
# Sequence of Peroxisome proliferator-activated receptor gamma/Nuclear receptor coactivator 3 (P37231 whole entry): as the sequence (P37231 whole entry) above
# Sequence of Peroxisome proliferator-activated receptor gamma/Nuclear receptor coactivator 3 (Q9Y6Q9 whole entry, further chain): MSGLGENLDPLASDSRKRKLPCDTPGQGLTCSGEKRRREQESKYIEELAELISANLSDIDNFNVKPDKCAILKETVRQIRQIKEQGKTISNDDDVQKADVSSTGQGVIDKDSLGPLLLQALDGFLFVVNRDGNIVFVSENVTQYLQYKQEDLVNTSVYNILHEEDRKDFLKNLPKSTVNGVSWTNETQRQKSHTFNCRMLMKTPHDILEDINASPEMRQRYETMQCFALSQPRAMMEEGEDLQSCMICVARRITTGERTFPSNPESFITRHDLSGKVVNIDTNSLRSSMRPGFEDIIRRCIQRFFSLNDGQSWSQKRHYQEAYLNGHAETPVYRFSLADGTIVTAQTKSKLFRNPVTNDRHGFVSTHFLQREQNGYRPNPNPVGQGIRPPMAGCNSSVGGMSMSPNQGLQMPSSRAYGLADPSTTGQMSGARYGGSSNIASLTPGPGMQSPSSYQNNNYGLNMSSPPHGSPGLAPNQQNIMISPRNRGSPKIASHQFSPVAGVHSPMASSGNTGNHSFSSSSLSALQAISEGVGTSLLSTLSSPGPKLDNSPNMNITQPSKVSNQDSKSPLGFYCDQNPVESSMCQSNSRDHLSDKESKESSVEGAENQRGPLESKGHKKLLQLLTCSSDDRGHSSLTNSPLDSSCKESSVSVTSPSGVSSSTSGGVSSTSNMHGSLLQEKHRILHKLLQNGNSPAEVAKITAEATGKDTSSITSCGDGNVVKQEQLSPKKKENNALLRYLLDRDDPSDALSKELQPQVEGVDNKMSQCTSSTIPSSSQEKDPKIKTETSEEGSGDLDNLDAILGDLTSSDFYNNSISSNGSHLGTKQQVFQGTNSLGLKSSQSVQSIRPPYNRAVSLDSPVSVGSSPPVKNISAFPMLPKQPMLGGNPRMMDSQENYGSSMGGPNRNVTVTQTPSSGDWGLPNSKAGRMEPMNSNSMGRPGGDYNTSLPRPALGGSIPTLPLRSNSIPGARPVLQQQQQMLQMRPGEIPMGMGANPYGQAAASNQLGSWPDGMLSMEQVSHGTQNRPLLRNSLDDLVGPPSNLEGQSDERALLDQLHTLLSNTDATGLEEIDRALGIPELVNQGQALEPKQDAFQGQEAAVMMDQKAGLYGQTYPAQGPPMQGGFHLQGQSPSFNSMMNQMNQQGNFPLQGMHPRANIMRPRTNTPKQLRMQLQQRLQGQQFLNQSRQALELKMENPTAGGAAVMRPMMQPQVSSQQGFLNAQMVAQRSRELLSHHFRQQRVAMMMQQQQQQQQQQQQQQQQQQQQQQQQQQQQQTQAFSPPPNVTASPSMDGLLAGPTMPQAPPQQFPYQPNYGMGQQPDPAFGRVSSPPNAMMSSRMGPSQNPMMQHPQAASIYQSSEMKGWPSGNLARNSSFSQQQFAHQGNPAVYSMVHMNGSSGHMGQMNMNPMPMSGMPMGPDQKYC
# Sequence of Cytochrome P450 2D6 (P10635 whole entry): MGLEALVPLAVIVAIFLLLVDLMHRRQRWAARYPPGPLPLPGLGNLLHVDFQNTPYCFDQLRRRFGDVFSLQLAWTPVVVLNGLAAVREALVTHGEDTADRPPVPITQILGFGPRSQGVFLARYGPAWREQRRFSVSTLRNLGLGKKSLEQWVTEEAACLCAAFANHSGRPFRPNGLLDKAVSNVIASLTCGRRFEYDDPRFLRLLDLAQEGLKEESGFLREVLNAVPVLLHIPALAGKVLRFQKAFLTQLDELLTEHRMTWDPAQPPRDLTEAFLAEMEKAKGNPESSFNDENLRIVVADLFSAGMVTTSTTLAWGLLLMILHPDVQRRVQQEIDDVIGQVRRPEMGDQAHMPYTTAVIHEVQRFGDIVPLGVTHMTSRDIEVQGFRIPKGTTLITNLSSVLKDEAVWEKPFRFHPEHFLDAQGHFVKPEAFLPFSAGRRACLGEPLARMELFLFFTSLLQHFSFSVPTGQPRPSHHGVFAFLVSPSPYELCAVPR
compound,measurement,setting,value
CCN(CC(=O)Nc1cc(Cl)ccc1C)C(=O)c1ccc(=O)n(Cc2ccccc2)n1,AC50,[1],5.05 µM (active)
same,AC50,[2],3.23 µM (active)
same,AC50,[3],9.4 µM (active)
same,AC50,[4],4.27 µM (active)
Cc1ccc(C(=O)NCC(=O)NCCCc2ccccc2)cc1,IC50,[5],16.6 µM (active)
CCOC(=O)c1c(-c2ccc(C)cc2)csc1NC(=O)CCN1CCOCC1,EC50,Streptokinase A,65.4 µM (active)
same,IC50,Prothrombin,> 50 µM (not active)
same,EC50,Streptococcus,> 150 µM (not active)
Cc1cccc2cc(CN(Cc3ccc4c(c3)OCO4)Cc3nnnn3C3CCCC3)c(=O)[nH]c12,EC50,[6],> 79.4 µM (not active)
same,EC50,[7],> 79.4 µM (not active)
same,EC50,[8],> 79.4 µM (not active)
C[C@@]12CC[C@@H]3[C@H](CCC4=CC(=O)CC[C@]43C)[C@@H]1CC[C@@H]2C(=O)Cn1cnc2c(S)ncnc21,AC50,Cytochrome P450 3A4,inconclusive
O=C(Nc1cnccn1)c1cccc(C(F)(F)F)c1,EC50,[6],> 79.4 µM (not active)
same,EC50,[7],> 79.4 µM (not active)
same,EC50,[8],> 79.4 µM (not active)
CC(NC(=O)c1cc(S(=O)(=O)N(C)C)ccc1N1CCCC1)C1CC2CCC1C2 (stereo not drawn),AC50,[1],4.89 µM (active)
same,AC50,[2],4.03 µM (active)
same,AC50,[3],7.68 µM (active)
same,AC50,[4],2.74 µM (active)
CCOc1ccc(OCC)c(NC(=O)C2CCCN(S(=O)(=O)c3c[nH]cn3)C2)c1 (stereo not drawn),IC50,Prothrombin,> 50 µM (not active)
Cc1nonc1NC(=O)CSc1ccc(-c2ccccc2)nn1,IC50,[5],14.5 µM (active)
Cc1ccc(NCC(O)C(O)C(O)CO)c(N=Nc2ccccc2)c1C (stereo not drawn),IC50,Prothrombin,> 50 µM (not active)
CC(=O)OCC(=O)[C@]12OC(C)(C)O[C@@H]1C[C@H]1[C@H]3CC=C4C[C@@H](O)CC[C@]4(C)[C@H]3CC[C@]12C,AC50,Cytochrome P450 3A4,inconclusive
same,AC50,Cytochrome P450 2C9,7.94 µM (inconclusive)
CCN=C(S)NNC(=O)c1ccccn1,IC50,[9],> 20 µM (inactive)
same,IC50,Nonstructural protein 1,1.55 µM (active)
Cc1ccc(-n2c(C)nc3c(cnn3-c3ccc(F)cc3)c2=O)cc1C,AC50,Cytochrome P450 3A4,inconclusive
same,AC50,Cytochrome P450 2C9,15.8 µM (inconclusive)
same,AC50,Cytochrome P450 2D6,15.8 µM (inconclusive)
CC(C)NC(=O)N1CCC2(CC1)CCN(C(=O)c1cccc(F)c1)CC2,AC50,Cytochrome P450 3A4,inconclusive
COC(=O)c1nnc(NC(=O)c2ccc(Br)cc2)[nH]1,IC50,Prothrombin,0.0137 µM (active)
COc1cccc(-c2cc(C(=O)N3CCCCCC3)no2)c1,AC50,[10],16.7 µM (active)
same,AC50,[11],10.3 µM (active)
CN1CC(c2ccccc2)C2(COc3ccccc3C2=O)C12C(=O)Nc1ccccc12 (stereo not drawn),AC50,[1],4.14 µM (active)
same,AC50,Cytochrome P450 2D6,20 µM (inconclusive)
same,AC50,[2],3.46 µM (active)
same,AC50,[3],5.51 µM (active)
same,AC50,[4],2.66 µM (active)
CC(=O)CCc1ccc(OC(=O)c2cccnc2)cc1,EC50,[6],> 79.4 µM (not active)
same,EC50,[7],> 79.4 µM (not active)
same,EC50,[8],> 79.4 µM (not active)
COc1ccc(C(=O)Nc2cc(C)c3c(=O)oc4ccccc4c3n2)cc1,EC50,[6],> 79.4 µM (not active)
same,EC50,[7],> 79.4 µM (not active)
same,EC50,[8],82.8 µM (not active)
CCCCN(CCCC)CCC(O)c1cc2c(Cl)cc(Cl)cc2c2cc(C(F)(F)F)ccc12 (stereo not drawn) [HALOFANTRINE HYDROCHLORIDE],AC50,[12],7.27 µM (active)
same,IC50,[9],> 20 µM (inactive)
same,CC50,[13],> 40 µM (active)
same,AC50,Cytochrome P450 1A2,20 µM (inconclusive)
same,AC50,[14],6.51 µM (active)
CC1(C)C(/C=C/C=C/C=C/C=C2\N(CCCCS(=O)(=O)O)c3ccc4ccccc4c3C2(C)C)=[N+](CCCCS(=O)(=O)[O-])c2ccc3ccccc3c21 [INDOCYANINE GREEN],EC50,[15],> 53 µM (inactive)
same,IC50,[16],> 47.1 µM (inactive)
same,IC50,Large T antigen,2.1 µM (active)
same,IC50,Nonstructural protein 1,2.7 µM (active)
